pIC50: −log10 of the molar value.

This experiment concerns the target Gamma-secretase. Briefly: Inhibition of gamma-secretase (unknown origin) expressed in CHO cells expressing APP assessed as inhibition of amyloid beta 42 production. In kind it is cell-based, Homo sapiens.
As a reminder, the pIC50 is the IC50 on a negative log10 scale, so that one unit is a factor of ten. Regarding `C#CCOc1ccc(C(=O)c2ccc(OCCOCCOCCNC(=O)[C@H](Cc3ccc(C(=O)c4ccccc4)cc3)NC(=O)[C@H](CC(C)C)NC(=O)[C@H](Cc3ccccc3)C[C@@H](O)[C@H](Cc3ccccc3)NC(=O)OC(C)(C)C)cc2)cc1`, the pIC50 was 8.82. For `C#CCOc1ccc(C(=O)c2ccc(OCCOCCOCCNC(=O)[C@H](Cc3ccccc3)NC(=O)[C@H](CC(C)C)NC(=O)[C@H](Cc3ccccc3)C[C@@H](O)[C@H](Cc3ccccc3)NC(=O)OC(C)(C)C)cc2)cc1` the value was 9.00. On to `C#CCCCCNC(=O)[C@H](Cc1ccc(C(=O)c2ccccc2)cc1)NC(=O)[C@H](CC(C)C)NC(=O)[C@H](Cc1ccccc1)C[C@@H](O)[C@H](Cc1ccccc1)NC(=O)c1ccc(C(=O)c2ccccc2)cc1`, for which the pIC50 is 6.74. Under `C#CCCCC(=O)Nc1ccc(C(=O)c2ccc(NC(=O)COCCOCCOCC(=O)NCCCCCNC(=O)[C@H](Cc3ccccc3)NC(=O)[C@H](CC(C)C)NC(=O)[C@H](Cc3ccccc3)C[C@@H](O)[C@H](Cc3ccccc3)NC(=O)OC(C)(C)C)cc2)cc1` stands 7.92. For `C#CCCCC(=O)Nc1ccc(C(=O)c2ccc(NC(=O)COCCOCCOCC(=O)NCCCOCCOCCOCCCNC(=O)[C@H](Cc3ccccc3)NC(=O)[C@H](CC(C)C)NC(=O)[C@H](Cc3ccccc3)C[C@@H](O)[C@H](Cc3ccccc3)NC(=O)OC(C)(C)C)cc2)cc1` the value was 7.64; for `C#CCCCCNC(=O)[C@H](Cc1ccccc1)NC(=O)[C@H](CC(C)C)NC(=O)[C@H](Cc1ccccc1)C[C@@H](O)[C@H](Cc1ccccc1)NC(=O)c1ccc(C(=O)c2ccccc2)cc1`, less than 6.00. For the compound `C#CCCCC(=O)Nc1ccc(C(=O)c2ccc(NC(=O)COCCOCCOCC(=O)NCCCCCNC(=O)[C@H](Cc3ccc(C(=O)c4ccccc4)cc3)NC(=O)[C@H](CC(C)C)NC(=O)[C@H](Cc3ccccc3)C[C@@H](O)[C@H](Cc3ccccc3)NC(=O)OC(C)(C)C)cc2)cc1`, the pIC50 was 7.48. Turning to `C#CCCCC(=O)Nc1ccc(C(=O)c2ccc(NC(=O)COCCOCCOCC(=O)NCCCOCCOCCOCCCNC(=O)[C@H](Cc3ccc(C(=O)c4ccccc4)cc3)NC(=O)[C@H](CC(C)C)NC(=O)[C@H](Cc3ccccc3)C[C@@H](O)[C@H](Cc3ccccc3)NC(=O)OC(C)(C)C)cc2)cc1`, the pIC50 is 7.70.
